Measured values from EP0503079A1, “PYRIDAZINONE-SUBSTITUTED ETHYNYLPHENYL DERIVATIVE AND REMEDY FOR CIRCULATORY ORGAN DISEASE CONTAINING THE SAME AS ACTIVE INGREDIENT” (KAKEN PHARMACEUTICAL CO., LTD., priority 1990, dated 1992).

Tests used:
Slc-ddy male mice = experiment: Activity on hypoxia induced in decapitation of mice (gasping time); format: in vivo; design: dose or concentration left out as unconfirmed; conditions: gasping time after decapitation, one hour after oral administration
Description: In each group, 3 Slc-ddy male mice (4 weeks) were employed. Each test compound was suspended or dissolved in a 0.5 % methyl cellulose solution. After the concentration was adjusted, the dose became […], the solution was administered orally. One hour after the administration, mice were decapitated and gasping time was measured.
(§1) Inhibition rate was calculated by the following formula. [formula]

[1] = system: Aortae abdominalis of male Wister rats; experiment: Anti-norepinephrine activity on rat abdominal aorta strip preparations (auto-Magnus apparatus); conditions: tension by norepinephrine (10⁻⁷M) regarded as 100
Description: Aortae abdominalis of male Wister rats (8-12 weeks) were delivered and cut in spiral-shape to be strip preparations. Each test compounds was disolved in DMSO. Then, the solution was diluted with distilled water and prepared to be desired concentration. Using an auto-Magnus apparatus, as to the vasoconstriction after adding norepinephrine, contractive forces were measured under the existence of the test compounds.

platelet aggregation = experiment: Inhibitory activity on platelet aggregation (turbidimetry); format: cell-based, New Zealand White male rabbits; conditions: for Inhibition rate (%) ADP aggregation: 0.6 µg/mℓ ADP; for Inhibition rate (%) PAF aggregation: 5 x 10⁻⁹M PAF; for Inhibition rate (%) Collagen aggregation: 2 µg/mℓ collagen
Description: Blood was exsanguinated from New Zealand White male rabbits weighing from 2.5 to 3.0 kg and subjected to the test. Each test compound was dissolved in ethanol and prepared to be 1 x 10⁻⁵, 1 x 10⁻⁶ or 1 x 10⁻⁷M respectively. Each aggregation response was measured by turbidimetry. Concentration of aggregating agent was 2 µg/mℓ of collagen, 0.6 µg/mℓ of adenosine 5'-diphosphate (ADP) or 5 x 10⁻⁹M of platelet aggregating factor (PAF).
as §1

Slc: ddy male mice = experiment: Activity on stress ulcers (restraint and water immersion); format: in vivo; conditions: length of ulcer in glandular stomach; 30 mg/kg orally; restrained and immersed in water of 23°C for 7 hours
Description: In each group, 5 Slc: ddy male mice (6 weeks) were employed. Each test compound was kneaded with Tween-80 followed by adding a 0.5 % solution of gum arabic to prepare 30 mg/10 mℓ solution (solution containing 1.5 % Tween-80 and 0.5 % gum arabic). Then, the preparation was administered orally in a rate of 30 mg/kg. After the administration, the mice were restrained and immersed in a water tank of 23°C for 7 hours. Then, length of the ulcer in the glandular stomach was measured by a stereoscopic microscope (x 10).

Acute toxicity = format: in vivo, mice; conditions: mouse, in vivo; oral administration, death rate after 7 days; read-out: LD₅₀
Description: In each group, 6 Slc: ddy male mice weighing 25 to 29 g (6 weeks) were employed. Each compound was administered orally thereto and a value of acute toxicity was evaluated with death rate after 7 days.

Row | Compound | Inhibition rate (%) (Slc-ddy male mice) | Contractive force ([1]; compound 10⁻⁷ M) | Contractive force ([1]; compound 10⁻⁸ M) | Contractive force ([1]; compound 10⁻⁹ M) | Inhibition rate (%) ADP aggregation (platelet aggregation; compound 10⁻⁵ M) [%] | Inhibition rate (%) PAF aggregation (platelet aggregation; compound 10⁻⁵ M) [%] | Inhibition rate (%) ADP aggregation (platelet aggregation; compound 10⁻⁶ M) [%] | Inhibition rate (%) Collagen aggregation (platelet aggregation; compound 10⁻⁶ M) [%] | Inhibition rate (%) ADP aggregation (platelet aggregation; compound 10⁻⁷ M) [%] | Inhibition rate (%) Collagen aggregation (platelet aggregation; compound 10⁻⁷ M) [%] | Inhibition rate (%) (Slc: ddy male mice) | LD50 at 168 h (Acute toxicity) [mg/kg]
1 | 2,6-dimethyl-4-(3-ethynylphenyl)-3-methoxycarbonyl-5-{4-(4-methyl-6-oxo-1,4,5,6-tetrahydropyridazinon-3-yl)phenyl}aminocarbonyl-1,4-dihydropyridine [Compound 16] | 3.4 | 17.9 | 86.4 | 105.3 | 88 | 66 | 65 | 97 | 19 | 25 | – | –
2 | C#Cc1cccc(C2C(C(=O)Nc3ccc(C4=NNC(=O)CC4)cc3)=C(C)NC(C)=C2C(=O)OCC)c1 (stereo not drawn) [Compound 20, 2,6-dimethyl-4-(3-ethynylphenyl)-3-ethoxycarbonyl-5-{4-(6-oxo-1,4,5,6-tetrahydropyridazinon-3-yl)phenyl}aminocarbonyl-1,4-dihydropyridine] | – | – | – | – | 93 | 70 | 68 | 95 | 20 | 23 | – | –
3 | 2,6-dimethyl-4-(3-ethynylphenyl)-3-methoxycarbonyl-5-{4-(5-methyl-6-oxo-1,4,5,6-tetrahydropyridazinon-3-yl)phenyl}aminocarbonyl-1,4-dihydropyridine [Compound 15] | 5.2 | 9.8 | 68.3 | 85.6 | 88 | 40 | 47 | 96 | 16 | 28 | 98.1 | –
4 | C#Cc1ccc(OC)c(C2C(C(=O)Nc3ccc(C4=NNC(=O)CC4)cc3)=C(C)NC(C)=C2C(=O)OCC)c1 (stereo not drawn) [Compound 18, 2,6-dimethyl-4-(3-ethynyl-6-methoxyphenyl)-3-ethoxycarbonyl-5-{4-(6-oxo-1,4,5,6-tetrahydropyridazinon-3-yl)phenyl}aminocarbonyl-1,4-dihydropyridine] | – | 16.3 | 90.5 | 111.2 | 82 | 61 | 61 | 100 | 19 | 30 | – | –
5 | C#Cc1cccc(C2C(C(=O)Nc3ccc(C4=NNC(=O)CC4)cc3)=C(C)NC(N)=C2C(=O)OCC)c1 (stereo not drawn) [Compound 12, 2-amino-3-ethoxycarbonyl-4-(3-ethynylphenyl)-6-methyl-5-{4-(6-oxo-1,4,5,6-tetrahydropyridazinon-3-yl)phenyl)aminocarbonyl-1,4-dihydropyridine] | 30.2 | 10.3 | 69.4 | 90.2 | 96 | 72 | 81 | 96 | 35 | 33 | 98.7 | 1200
6 | 4-{3-(2-tert-butoxycarbonyl)ethynyl}phenyl-2,6-dimethyl-5-{4-(6-oxo-1,4,5,6-tetrahydropyridazinon-3-yl)phenyl}aminocarbonyl-3-methoxycarbonyl-1,4-dihydropyridine [Compound 8] | 12.8 | – | – | – | – | – | – | – | – | – | 75.4 | –
7 | 2,6-dimethyl-3-methoxycarbonyl-5-{4-(6-oxo-1,4,5,6-tetrahydropyridazinon-3-yl)phenyl}aminocarbonyl-4-{3-(1-heptyn-1-yl)}phenyl-1,4-dihydropyridine [Compound 3] | – | 12.5 | 68.3 | 92.4 | 87 | 65 | 59 | 93 | 18 | 28 | – | –
8 | C#Cc1cccc(C2C(C(=O)Nc3ccc(C4=NNC(=O)CC4)cc3)=C(C)NC(C)=C2C(=O)OCCOC)c1 (stereo not drawn) [Compound 22, 2,6-dimethyl-4-(3-ethynylphenyl)-3-methoxyethoxycarbonyl-5-{4-(6-oxo-1,4,5,6-tetrahydropyridazinon-3-yl)phenyl}aminocarbonyl-1,4-dihydropyridine] | – | – | – | – | 86 | 48 | 55 | 100 | 14 | 29 | – | –
9 | C#Cc1cccc(C2C(C(=O)Nc3ccc(C4=NNC(=O)CC4CC)cc3)=C(C)NC(C)=C2C(=O)OC)c1 (stereo not drawn) [Compound 19, 2,6-dimethyl-4-(3-ethynylphenyl)-5-{4-(4-ethyl-6-oxo-1,4,5,6-tetrahydropyridazinon-3-yl)phenyl} aminocarbonyl-3-methoxycarbonyl-1,4-dihydropyridine] | 5.6 | 14.9 | 84.9 | 101.1 | 83 | 38 | 63 | 91 | 20 | 28 | 92.6 | –
10 | CCOC(=O)C1=C(N)NC(C)=C(C(=O)Nc2ccc(C3=NNC(=O)CC3)cc2)C1c1cccc(C#CC(C)(C)O)c1 (stereo not drawn) [Compound 24, 2-amino-4-{3-(3-hydroxy-3-methyl)-1-butyn-1-yl}phenyl-3-ethoxycarbonyl-6-methyl-5-{4-(6-oxo-1,4,5,6-tetrahydropyridazinon-3-yl)phenyl}aminocarbonyl-1,4-dihydropyridine] | 24.2 | 11.1 | 72.4 | 88.8 | 92 | 60 | 70 | 90 | 27 | 29 | – | 1100
11 | C#Cc1cccc(C2C(C(=O)Nc3ccc(C4=NNC(=O)CC4C)cc3)=C(C)NC(N)=C2C(=O)OCC)c1 (stereo not drawn) [Compound 23, 2-amino-4-(3-ethynylphenyl)-3-ethoxycarbonyl-6-methyl-5-{4-(6-oxo-4-methyl-1,4,5,6-tetrahydropyridazinon-3-yl)phenyl}aminocarbonyl-1,4-dihydropyridine] | – | – | – | – | 86 | 47 | 56 | 100 | 18 | 30 | 91.7 | –
12 | 2,6-dimethyl-3-methoxycarbonyl-5-{4-(6-oxo-1,4,5,6-tetrahydropyridazinon-3-yl)phenyl}aminocarbonyl-4-[3-{2-(4-nitro)phenyl)ethynyl]phenyl-1,4-dihydropyridine [Compound 4] | 13.2 | 13.2 | 71.5 | 93.2 | 91 | 64 | 58 | 92 | 22 | 24 | – | –
13 | 2,6-dimethyl-3-methoxycarbonyl-5-{4-(6-oxo-1,4,5,6-tetrahydropyridazinon-3-yl)phenyl}aminocarbonyl-4-{3-(6-morpholino-1-hexyn-1-yl)}phenyl-1,4-dihydropyridine [Compound 5] | 3.2 | – | – | – | 89 | 59 | 61 | 89 | 20 | 26 | – | –
